Results taken from patent US7799763B2, “Muscle-strengthening drugs and anti-inflammatory drugs” (Daicho Kikaku Incorporated Company, priority 2002, dated 2010).

Key:
[1] = test system: patients with walking difficulties, proctoptosia, backaches, limb pains; assay: Tablets of Example 4 administered once a day to aged patients with muscle disorders; format: in vivo, human; details: single regular dose of drugs admixed with one of scymnol, isoflavone, and cholic acid
Excerpt: In Western medicine, it has been understood that proctoptosia and leg, lumbus and arm aches are attributable only to hematogenous disorders and resultant inflammation at local sites. […] Thus, it can be understood that these disorders are attributed to insufficient communication of brain commands to local sites and therefore the hematogenous disorders and onset of inflammation are problems caused by abnormal motions of muscles due to incomplete communication of brain commands.

adrenaline secretion = assay: Animal experiments using mice: secretomotory action on adrenaline (blood glucose levels); format: in vivo
Excerpt: No studies have been conducted on the efficacy of curcumin, zingerone, or shogaol on the stimulation of adrenaline secretion.

Row | Compound | effect on proctoptosia and leg, lumbus and arm aches [1] | blood glucose levels (secretomotory action on adrenaline) (adrenaline secretion)
1 | C[C@H](CCC(=O)O)[C@H]1CC[C@H]2[C@@H]3[C@H](O)C[C@@H]4C[C@H](O)CC[C@]4(C)[C@H]3C[C@H](O)[C@]12C [cholic acid] | not significantly ameliorated | 
2 | COc1cc(/C=C/C(=O)/C=C(O)/C=C/c2ccc(O)c(OC)c2)ccc1O [curcumin] |  | remarkably elevated
3 | C[C@H](CC[C@@H](O)C(CO)CO)C1CCC2C3C(C[C@H](O)[C@@]21C)[C@@]1(C)CC[C@@H](O)CC1C[C@H]3O (some centres unmarked) [scymnol, Scymnol] | not significantly ameliorated | 
4 | CCCCC/C=C/C(=O)CCc1ccc(O)c(OC)c1 [shogaol, (6)-shogaol] |  | remarkably elevated
5 | COc1cc(CCC(C)=O)ccc1O [zingerone] |  | remarkably elevated
